Experiments:
[1] = biological target: T1, E. coli DNA polymerase I (large fragment, Klenow fragment), wild type (Escherichia coli, UniProt P00582); experiment: Gel electrophoresis-based rate of incorporation of dideoxynucleotides relative to deoxynucleotides, varying the ratio of dNTPs to ddNTPs (Example 7); type: biochemical; settings: 10 µM 4 dNTPs, ddNTP 100 to 2,000 µM; ddNTP:dNTP ratio giving fragments comparable to E. coli DNA polymerase I F762Y, multiplied by its Example 6 ratio
T1 construct: The large fragment of E. coli DNA polymerase I, commonly called the Klenow fragment; made in house
T1 sequence (P00582 324-928): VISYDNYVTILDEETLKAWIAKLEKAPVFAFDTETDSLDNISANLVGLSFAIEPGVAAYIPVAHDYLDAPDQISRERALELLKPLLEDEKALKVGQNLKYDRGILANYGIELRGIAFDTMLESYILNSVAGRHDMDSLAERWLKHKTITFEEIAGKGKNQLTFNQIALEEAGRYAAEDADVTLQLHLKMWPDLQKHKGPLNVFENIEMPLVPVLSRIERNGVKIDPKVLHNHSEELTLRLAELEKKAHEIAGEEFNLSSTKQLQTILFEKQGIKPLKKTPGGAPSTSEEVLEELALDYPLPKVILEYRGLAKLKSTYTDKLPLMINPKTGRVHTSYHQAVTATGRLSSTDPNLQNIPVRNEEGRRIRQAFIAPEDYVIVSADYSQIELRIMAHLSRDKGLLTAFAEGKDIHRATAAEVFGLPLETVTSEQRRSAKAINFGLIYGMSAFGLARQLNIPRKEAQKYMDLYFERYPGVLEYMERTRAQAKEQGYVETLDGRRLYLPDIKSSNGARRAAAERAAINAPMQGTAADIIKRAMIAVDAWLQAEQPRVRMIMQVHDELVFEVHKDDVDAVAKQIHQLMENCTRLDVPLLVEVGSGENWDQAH
Description: (§1) This example is similar to that described in Example 6. While it is the preferred test for DNA polymerases that discriminate strongly against the incorporation of dideoxynucleotides (e.g. T7 DNA polymerase Y526F, E. coli DNA polymerase I and Taq DNA polymerase), it also works well with DNA polymerases that efficiently incorporate ddNMPs (e.g. T7 DNA polymerase, E. coli DNA polymerase I mutant F762Y and Taq DNA polymerase mutant F667Y).
(§2) The average length of a series of fragments is determined in one of two ways. […] The position of the front marking the appearance of visible radioactive bands is usually relatively sharp and readily observed by eye. However, it is also possible to determine such positions more precisely using the Phosphoimager to locate the position in each lane where a certain threshold of radioactivity per unit area occurs, starting at the top of the gel and moving down the gel.
(§3) Some DNA polymerases discriminate very strongly against the incorporation of dideoxynucleotides, in which case it is difficult to add sufficient ddNTPs to the reaction to clearly detect the position of the largest dideoxy-terminated fragments on a denaturing polyacrylamide gel. For such DNA polymerases, one can use an alkaline agarose gel electrophoresis to compare the lengths of the dideoxy-terminated fragments in the different series.
(§4) These tests were carried out using the six DNA polymerases described in Example 6. The reaction conditions were identical to that described in Example 6 except for the concentrations of dNTPs and ddNTPs. All reaction mixtures contained 10 µM 4 dNTPs. Each of the four ddNTP concentrations were varied by two-fold increments in the following ranges for the six DNA polymerases as follows: T7 DNA polymerase, E. coli DNA polymerase I F762Y, and Taq DNA polymerase F667Y , 0.02 µM to 1 µM, and T7 DNA polymerase Y526F, E. coli DNA polymerase I and Taq DNA polymerase, 100 to 2,000 µM. The reactions were carried out and the samples were analyzed by denaturing polyacrylamide gel electrophoresis as described in Example 6. Drying of the gel, autoradiography, and Phosphoimager analysis were as described in Example 6. The Table below summarizes the results from this experiment; the values shown for T7 DNA polymerase, E. coli DNA polymerase I F762Y, and Taq DNA polymerase F667Y are the absolute ratios obtained in Example 6 by statistical analysis of the rate of exponential decay in intensity of dideoxy-terminated fragments obtained using a 1:1 ratio of dNTPs to ddNTPs. […] This factor was multiplied by the absolute ratios obtained for T7 DNA polymerase, E. coli DNA polymerase I F762Y, and Taq DNA polymerase F667Y in Example 6 in order to obtain the values shown below for T7 DNA polymerase Y526F, E. coli DNA polymerase I and Taq DNA polymerase, respectively.

[2] = biological target: T2, Taq DNA polymerase (unmodified DNA polymerase from Thermus aquaticus) (Thermus aquaticus, UniProt P19821); experiment: as above; type: biochemical; settings: 10 µM 4 dNTPs, ddNTP 100 to 2,000 µM; ddNTP:dNTP ratio giving fragments comparable to Taq DNA polymerase F667Y, multiplied by its Example 6 ratio
T2 construct: to the gene that produces the full length Taq DNA polymerase; made in house
T2 sequence (P19821 whole entry, the tested form may be a part): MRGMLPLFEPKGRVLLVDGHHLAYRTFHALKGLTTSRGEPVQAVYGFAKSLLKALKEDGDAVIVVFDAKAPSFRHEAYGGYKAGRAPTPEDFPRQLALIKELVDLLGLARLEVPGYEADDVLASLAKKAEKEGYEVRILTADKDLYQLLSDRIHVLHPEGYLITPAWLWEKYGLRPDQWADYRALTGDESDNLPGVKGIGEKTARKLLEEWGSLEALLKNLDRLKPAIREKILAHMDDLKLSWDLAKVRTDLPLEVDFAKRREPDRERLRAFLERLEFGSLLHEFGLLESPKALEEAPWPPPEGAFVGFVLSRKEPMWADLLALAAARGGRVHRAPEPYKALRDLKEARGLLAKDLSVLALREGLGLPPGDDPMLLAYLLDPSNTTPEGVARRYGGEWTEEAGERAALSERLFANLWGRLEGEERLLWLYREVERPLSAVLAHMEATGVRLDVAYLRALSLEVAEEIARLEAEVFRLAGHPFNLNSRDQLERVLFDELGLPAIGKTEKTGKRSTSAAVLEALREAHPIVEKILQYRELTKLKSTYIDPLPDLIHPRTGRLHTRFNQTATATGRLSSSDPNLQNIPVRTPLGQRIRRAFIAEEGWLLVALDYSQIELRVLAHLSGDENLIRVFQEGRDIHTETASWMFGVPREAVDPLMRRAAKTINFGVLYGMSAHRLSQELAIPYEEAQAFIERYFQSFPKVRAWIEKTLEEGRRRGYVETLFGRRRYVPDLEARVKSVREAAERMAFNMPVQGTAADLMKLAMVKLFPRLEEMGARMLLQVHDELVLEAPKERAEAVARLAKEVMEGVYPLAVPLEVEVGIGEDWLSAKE
Description: as §1, §2, §3, §4

SMILES | Incorporation Rate Ratios (dN/ddN) [1] | Incorporation Rate Ratios (dN/ddN) [2]
Cc1cn([C@H]2CC[C@@H](COP(=O)(O)OP(=O)(O)OP(=O)(O)O)O2)c(=O)[nH]c1=O [ddTTP] | 1,100 | 4,500
Nc1ncnc2c1ncn2[C@H]1CC[C@@H](COP(=O)(O)OP(=O)(O)OP(=O)(O)O)O1 [ddATP] | 720 | 4,700
Nc1nc2c(ncn2[C@H]2CC[C@@H](COP(=O)(O)OP(=O)(O)OP(=O)(O)O)O2)c(=O)[nH]1 [ddGTP] | 140 | 1,400
Nc1ccn([C@H]2CC[C@@H](COP(=O)(O)OP(=O)(O)OP(=O)(O)O)O2)c(=O)n1 [ddCTP] | 250 | 2,600
